Measured values as given in US20240117303A1, “METHODS AND COMPOSITIONS FOR GENERATING HUMAN MIDBRAIN DOPAMINERGIC NEURONS FROM NEURAL PROGENITOR CELLS” (Trailhead Biosystems Inc., priority 2022, published 2024).

System: human pluripotent stem cells
Experiment: HD-DoE 13-factor experiment for stage 1 recipe, gene expression modeled after 3-day treatment; dynamic profile and factor criticality analysis
Type: cell-based
Procedure, shortened: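 Human pluripotent stem cells given 13-factor effector combinations (e.g. LDN193189, CHIR99021, PD0325901) for 3 days; expression of 53 preselected genes modeled, focusing on OTX2, DMBX1, FOXA2, LMX1A and GBX2. Factor criticality assessed by removing each of five finalized factors and comparing with all five present.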

`Cc1c[nH]c(-c2cnc(NCCNc3ccc(C#N)cn3)nc2-c2ccc(Cl)cc2Cl)n1` [CHIR99021] was tested, and the “impact on expression of FOXA2” value (dynamic profile, 13 effectors) was “positive impact”, the “impact on expression of OTX2” value (dynamic profile, 13 effectors) was “positive impact” and the factor contribution (model optimized for maximum expression of FOXA2, positive effect) was 15.6. The factor contribution (model optimized for maximum expression of OTX2, positive impact, 3-day treatment) was 13.5, the “expression level of LMX1A in absence of the factor” value (stage 1 recipe, other four factors present, 300 with all five factors) was “reduced” and the “expression level of FOXA2 in absence of the factor” value (stage 1 recipe, other four factors present, 600 with all five factors) was “reduced”. For the same molecule, the “expression level of DMBX1 in absence of the factor” value (stage 1 recipe, other four factors present, 3000 with all five factors) was “reduced” and the “expression level of OTX2 in absence of the factor” value (stage 1 recipe, other four factors present, 12000 with all five factors) was “reduced”.
